Experimental data from ChEMBL document CHEMBL1201862, “PubChem BioAssay data set” (2004).
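Five concentrations, 48 hours, 96-well plates. GI50 is the concentration that inhibits growth by half.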 Activity calls are given as the source filed them. No stated cut-off is given here; in the data, active = GI50 up to about 1.1 µM and inactive = higher.

Key:
Test in all cases: NCI tumour cell line growth inhibition, 48 h
CAKI-1 = test system: CAKI-1
COLO 205 = test system: COLO 205
EKVX = test system: EKVX
HCC 2998 = test system: HCC 2998
HT-29 = test system: HT-29
K562 = test system: K562
KM12 = test system: KM12
M14 = test system: M14
MDA-N = test system: MDA-N
NCI-H460 = test system: NCI-H460
OVCAR-4 = test system: OVCAR-4
OVCAR-5 = test system: OVCAR-5
PC-3 = test system: PC-3
RPMI-8226 = test system: RPMI-8226
SF-539 = test system: SF-539
SK-MEL-5 = test system: SK-MEL-5
SNB-75 = test system: SNB-75
SR = test system: SR
UACC-257 = test system: UACC-257
Hs-578T = test system: Hs-578T

SMILES	GI50 (CAKI-1)	GI50 (COLO 205)	GI50 (EKVX)	GI50 (HCC 2998)	GI50 (HT-29)	GI50 (K562)	GI50 (KM12)	GI50 (M14)	GI50 (MDA-N)	GI50 (NCI-H460)	GI50 (OVCAR-4)	GI50 (OVCAR-5)	GI50 (PC-3)	GI50 (RPMI-8226)	GI50 (SF-539)	GI50 (SK-MEL-5)	GI50 (SNB-75)	GI50 (SR)	GI50 (UACC-257)	GI50 (Hs-578T)
Nc1ccc2nc3n(c2c1)C(=O)c1ccccc1-3	> 100 µM (inactive)	> 100 µM (inactive)	> 100 µM (inactive)	> 100 µM (inactive)	> 100 µM (inactive)	> 100 µM (inactive)	> 100 µM (inactive)	> 100 µM (inactive)	> 100 µM (inactive)	> 100 µM (inactive)	> 100 µM (inactive)	> 100 µM (inactive)	> 100 µM (inactive)	> 100 µM (inactive)	> 100 µM (inactive)	> 100 µM (inactive)	> 100 µM (inactive)	> 100 µM (inactive)	> 100 µM (inactive)	–
Fc1cccc(Cl)c1/C=N\N=C1c2ccccc2-c2ccccc21	> 100 µM (inactive)	> 100 µM (inactive)	> 100 µM (inactive)	–	58.9 µM (inactive)	> 100 µM (inactive)	40.7 µM (inactive)	> 100 µM (inactive)	48.3 µM (inactive)	79.8 µM (inactive)	49.4 µM (inactive)	> 100 µM (inactive)	97.9 µM (inactive)	33.9 µM (inactive)	49.4 µM (inactive)	> 100 µM (inactive)	–	51.2 µM (inactive)	> 100 µM (inactive)	34.3 µM (inactive)
Clc1ccc(CSc2ncnc3c2ncn3C2CCCCO2)cc1 (stereo not given)	26.3 µM (inactive)	20 µM (inactive)	13.4 µM (inactive)	18.6 µM (inactive)	18.8 µM (inactive)	12.6 µM (inactive)	19.1 µM (inactive)	17.1 µM (inactive)	20.1 µM (inactive)	16.9 µM (inactive)	25.2 µM (inactive)	37.4 µM (inactive)	25.6 µM (inactive)	14.3 µM (inactive)	–	10.9 µM (inactive)	20.2 µM (inactive)	–	11.2 µM (inactive)	26.5 µM (inactive)
C1=N\CCOCC/N=C\c2ccc(cc2)OCc2cccc(n2)COc2ccc/1cc2	–	> 100 µM (inactive)	> 100 µM (inactive)	–	> 100 µM (inactive)	> 100 µM (inactive)	> 100 µM (inactive)	> 100 µM (inactive)	> 100 µM (inactive)	> 100 µM (inactive)	> 100 µM (inactive)	> 100 µM (inactive)	> 100 µM (inactive)	> 100 µM (inactive)	> 100 µM (inactive)	–	> 100 µM (inactive)	> 100 µM (inactive)	> 100 µM (inactive)	> 100 µM (inactive)
NC(=O)CCC(NC(=O)c1c2ccccc2nc2ccccc12)C(=O)O (stereo not given)	> 100 µM (inactive)	> 100 µM (inactive)	> 100 µM (inactive)	> 100 µM (inactive)	> 100 µM (inactive)	> 100 µM (inactive)	> 100 µM (inactive)	> 100 µM (inactive)	> 100 µM (inactive)	> 100 µM (inactive)	> 100 µM (inactive)	> 100 µM (inactive)	> 100 µM (inactive)	> 100 µM (inactive)	> 100 µM (inactive)	> 100 µM (inactive)	> 100 µM (inactive)	–	> 100 µM (inactive)	–
COc1ccc(/C(Nc2ccccc2)=C(\CCl)c2ccccc2)cc1OC	> 100 µM (inactive)	71.6 µM (inactive)	24.3 µM (inactive)	48.1 µM (inactive)	34.9 µM (inactive)	15.7 µM (inactive)	57.1 µM (inactive)	41.4 µM (inactive)	35.7 µM (inactive)	41.8 µM (inactive)	35.7 µM (inactive)	> 100 µM (inactive)	39.4 µM (inactive)	21.2 µM (inactive)	> 100 µM (inactive)	22.2 µM (inactive)	63.2 µM (inactive)	–	29.2 µM (inactive)	> 100 µM (inactive)
OCCOCn1nncc1Cn1ncc2c(SCc3ccccc3)ncnc21	> 100 µM (inactive)	> 100 µM (inactive)	> 100 µM (inactive)	> 100 µM (inactive)	37.7 µM (inactive)	37.7 µM (inactive)	> 100 µM (inactive)	59.3 µM (inactive)	54.7 µM (inactive)	> 100 µM (inactive)	88.5 µM (inactive)	> 100 µM (inactive)	94.8 µM (inactive)	–	65 µM (inactive)	> 100 µM (inactive)	60.4 µM (inactive)	–	> 100 µM (inactive)	> 100 µM (inactive)
O=[N+]([O-])c1cccc(-c2ccc([C@H]3CC(c4ccc(Cl)cc4)=NN3)o2)c1	26.1 µM (inactive)	> 100 µM (inactive)	70 µM (inactive)	16.6 µM (inactive)	21.3 µM (inactive)	19.1 µM (inactive)	–	30.1 µM (inactive)	24 µM (inactive)	–	23.2 µM (inactive)	31.7 µM (inactive)	–	14.3 µM (inactive)	–	13.8 µM (inactive)	14.7 µM (inactive)	0.433 µM (active)	31.7 µM (inactive)	58.9 µM (inactive)
CCOP(=O)(OCC)/C(C#N)=C/c1cccn1CC(C)C	> 100 µM (inactive)	> 100 µM (inactive)	> 100 µM (inactive)	> 100 µM (inactive)	> 100 µM (inactive)	39.9 µM (inactive)	89.9 µM (inactive)	> 100 µM (inactive)	> 100 µM (inactive)	> 100 µM (inactive)	–	> 100 µM (inactive)	93.3 µM (inactive)	–	> 100 µM (inactive)	40.9 µM (inactive)	> 100 µM (inactive)	> 100 µM (inactive)	> 100 µM (inactive)	–
O=C(C1OC1c1ccc(F)cc1)C12CC3CC(CC(C3)C1)C2 (stereo not given)	25 µM (inactive)	16 µM (inactive)	19.3 µM (inactive)	20.1 µM (inactive)	20.2 µM (inactive)	17.6 µM (inactive)	15.7 µM (inactive)	15.7 µM (inactive)	12.7 µM (inactive)	13.3 µM (inactive)	13.8 µM (inactive)	19.6 µM (inactive)	30.7 µM (inactive)	–	21.2 µM (inactive)	16.5 µM (inactive)	31 µM (inactive)	–	26.9 µM (inactive)	23.2 µM (inactive)
CN1CN(c2ccccc2)C2(CCN(CCCN(C)c3ccc(F)cc3)CC2)C1=O	30.1 µM (inactive)	11.6 µM (inactive)	–	–	10.1 µM (inactive)	1.58 µM (inactive)	16 µM (inactive)	16.2 µM (inactive)	16.3 µM (inactive)	16.4 µM (inactive)	–	17.3 µM (inactive)	23.4 µM (inactive)	10.7 µM (inactive)	22.5 µM (inactive)	16.2 µM (inactive)	16.9 µM (inactive)	–	17.8 µM (inactive)	18.7 µM (inactive)
COc1cccc2c1OC(c1ccc(Cl)cc1)C([N+](=O)[O-])=C2 (stereo not given)	3.48 µM (inactive)	2.19 µM (inactive)	11.7 µM (inactive)	–	1.35 µM (inactive)	0.411 µM (active)	2.08 µM (inactive)	1.11 µM (active)	1.42 µM (inactive)	1.58 µM (inactive)	2.17 µM (inactive)	2.79 µM (inactive)	1.66 µM (inactive)	1.52 µM (inactive)	–	1.53 µM (inactive)	–	0.538 µM (active)	1.91 µM (inactive)	4.2 µM (inactive)
CC(C)(C)O/C=C1/C(=O)OC2C[C@@H](O[Si](C)(C)C(C)(C)C)CC12 (stereo not given in full)	> 100 µM (inactive)	72.9 µM (inactive)	> 100 µM (inactive)	> 100 µM (inactive)	68.1 µM (inactive)	–	65.2 µM (inactive)	54.6 µM (inactive)	> 100 µM (inactive)	79.8 µM (inactive)	74 µM (inactive)	> 100 µM (inactive)	45.5 µM (inactive)	–	–	60.3 µM (inactive)	16.8 µM (inactive)	–	41.5 µM (inactive)	–
CC1OC(O)C(O)C(O)C1O (stereo not given)	> 100 µM (inactive)	> 100 µM (inactive)	> 100 µM (inactive)	–	> 100 µM (inactive)	> 100 µM (inactive)	> 100 µM (inactive)	> 100 µM (inactive)	> 100 µM (inactive)	> 100 µM (inactive)	> 100 µM (inactive)	> 100 µM (inactive)	> 100 µM (inactive)	> 100 µM (inactive)	> 100 µM (inactive)	> 100 µM (inactive)	> 100 µM (inactive)	–	> 100 µM (inactive)	> 100 µM (inactive)
O=S(=O)(O)c1cc(O)c(/N=N/c2ccc(O)cc2O)c2ccccc12	> 100 µM (inactive)	38.1 µM (inactive)	30.9 µM (inactive)	–	8.97 µM (inactive)	> 100 µM (inactive)	20.9 µM (inactive)	42.7 µM (inactive)	> 100 µM (inactive)	–	> 100 µM (inactive)	46.8 µM (inactive)	53.5 µM (inactive)	> 100 µM (inactive)	–	> 100 µM (inactive)	> 100 µM (inactive)	> 100 µM (inactive)	> 100 µM (inactive)	> 100 µM (inactive)
CCOC(=O)Nc1ccc2c(c1)N(C(=O)CCN(CC)CC)c1ccccc1S2 [ETHACIZINE]	36.4 µM (inactive)	20.5 µM (inactive)	> 35.9 µM (inactive)	17.3 µM (inactive)	17.3 µM (inactive)	25.8 µM (inactive)	15.5 µM (inactive)	22.9 µM (inactive)	–	20.1 µM (inactive)	43.6 µM (inactive)	57.1 µM (inactive)	31.4 µM (inactive)	17.9 µM (inactive)	21.1 µM (inactive)	19.2 µM (inactive)	2.09 µM (inactive)	17.5 µM (inactive)	16.3 µM (inactive)	50.4 µM (inactive)
